In US8987262B2, “Use of a beta blocker for the manufacture of a medicament for the treatment of hemangiomas” (Universite de Bordeaux, priority 2007, dated 2015):
Where two headings read alike, the source gives them in different places.

Tests used:
[1] = tested on: infantile capillary hemangiomas (IH); assay: Treatment of infants with infantile hemangioma (case reports, Examples 1-3)
cleaved caspase-3 and 8 = assay: Immuno-histochemical analysis of IH biopsy with anti-cleaved caspase-3 and 8 antibodies; parameters: species or system human; details: Example 2, arm biopsy at 3 months of age
Procedure: Prednisolone treatment was progressively tapered down while the IH continued to improve. At 3 months of age a biopsy sample was obtained on the arm, showing a typical IH.
Reintroduction of propranolol treatment at 2 mg/kg/day was successful after only 24 hours.

subglottic hemangioma = details: cited from earlier work
infantile hemangiomas = details: cited from earlier work
HIF-1alpha and VEGF = details: pressure-overloaded rat heart; cited from earlier work
head and neck IH = details: oral suspension up to 4 mg/kg/day, 24 weeks; cited from earlier work
IH = details: in vivo; cited from earlier work
[2] = Case 4, 3 mg/kg/day, stenosis at referral 90%
[3] = Case 1, 8 mg/kg/day, stenosis at referral 90%
[4] = Case 2, 8 mg/kg/day, stenosis at referral 70%
[5] = Case 3, 8 mg/kg/day, stenosis at referral 90%

## CC(C)NCC(O)COc1cccc2ccccc12 (racemic) [propranolol]
[1]; Example 1, baby, nasal pyramid IH, 3 mg/kg/day, the day after onset
  change of the hemangioma after onset of treatment: changed in color from intense red to purple, and softened
[1]; Example 1, still under propranolol
  aspect of the IH: completely flat
[1]; Example 2, 2 mg/kg/d
  parotidal and axillary subcutaneous hemangiomatous components: not palpable
[1]; Example 2, 2 mg/kg/day
  time to softening of the lesions after onset: 12 h
  time to success after reintroduction of treatment: 24 h
[1]; Example 2, 2 mg/kg/day, seven days after onset
  change in size of hemangioma: dramatic reduction in size of the subcutaneous component of the hemangioma
[1]; Example 2, 3-day interruption, superior eyelid and parotidal areas
  effect of treatment interruption: mild increase in size of the hemangioma
[1]; Example 2, stopped
  outcome after treatment stopped: without any re-growth of the IH
[1]; Example 3, 7 days after onset, 2 mg/kg/day
  hemodynamic modifications: without any hemodynamic modifications
[1]; Example 3, 7 days after onset, versus 12 mm before
  IH thickness (ultrasonography): 6 mm
[1]; Example 3, 7 days after onset, versus 32 mm before
  IH diameter (ultrasonography): 21 mm
[1]; Example 3, periocular IH, 2 mg/kg/day
  time to flattening of the lesion: 12 h
[1]; Example 3, stopped after one month
  outcome after treatment stopped: novel increase in size of the IH
[1]; Example 3, stopped at 8 months
  outcome after treatment stopped: without any rebound of the hemangioma
[1]; Example 3, treatment resumed
  aspect of the IH: flat and had faded in color
[1]; all treated children (Examples 1-3 and seven other)
  treatment failure: No treatment failure
Cleaved caspase-3 and 8
  cleaved caspase-3 and 8 immunostaining (proapoptotic role): did not demonstrate positive immunostaining
Subglottic hemangioma; [2]
  Beta-blocker efficiency: success
  Laryngeal stenosis during beta-blocker treatment (%): 5%

## CCCC(=O)Nc1ccc(OCC(O)CNC(C)C)c(C(C)=O)c1 (centres unmarked) [Acebutolol]
Subglottic hemangioma; 8 mg/kg/day
  overall result of study: able to treat hemangiomas
Subglottic hemangioma; [3]
  Beta-blocker efficiency: Failure
  Laryngeal stenosis during beta-blocker treatment (%): 90%
Subglottic hemangioma; [4]
  Beta-blocker efficiency: success
  Laryngeal stenosis during beta-blocker treatment (%): 10%
Subglottic hemangioma; [5]
  Beta-blocker efficiency: success
  Laryngeal stenosis during beta-blocker treatment (%): 5%

## CC(C)(C)NC[C@H](O)COc1nsnc1N1CCOCC1 [Timolol, timolol]
Infantile hemangiomas; Age at treatment inititation (mos) <6
  Mean VAS ± Standard deviation: 45 ± 27
Infantile hemangiomas; Age at treatment inititation (mos) >6
  Mean VAS ± Standard deviation: 47 ± 30
Infantile hemangiomas; Depth of hemangioma: Deep
  Mean VAS ± Standard deviation: 32 ± 28
Infantile hemangiomas; Depth of hemangioma: Superficial
  Mean VAS ± Standard deviation: 53 ± 29
Infantile hemangiomas; Location: Facial
  Mean VAS ± Standard deviation: 45 ± 29
Infantile hemangiomas; Location: Nonfacial
  Mean VAS ± Standard deviation: 43 ± 32
Infantile hemangiomas; Timolol concentration (%) 0.1
  Mean VAS ± Standard deviation: 24 ± 29
Infantile hemangiomas; Timolol concentration (%) 0.5
  Mean VAS ± Standard deviation: 48 ± 28
Infantile hemangiomas; Treatment duration (mos) <3
  Mean VAS ± Standard deviation: 38 ± 28
Infantile hemangiomas; Treatment duration (mos) >3
  Mean VAS ± Standard deviation: 52 ± 30
Infantile hemangiomas; timolol maleate 0.1% or 0.5% gel-forming solution
  overall result of study: able to treat hemangiomas

## C[C@H]1C[C@H]2[C@@H]3CCC4=CC(=O)C=C[C@]4(C)[C@@]3(F)[C@@H](O)C[C@]2(C)[C@@]1(O)C(=O)CO [betamethasone]
[1]; Example 1, under systemic steroid
  cardiac sonography finding: obstructive hypertrophic myocardiopathy

## COc1ccccc1OCCNCC(O)COc1cccc2[nH]c3ccccc3c12 (centres unmarked) [cardivedilol]
HIF-1alpha and VEGF
  effect on HIF-1alpha and VEGF protein and mRNA: reverses both protein and mRNA of HIF-1alpha and VEGF to the baseline values

## CC(C)(C)NCC(O)COc1cccc2c1CC(O)C(O)C2 (centres unmarked) [nadolol]
Head and neck IH
  overall result of study: able to treat efficiently hemangiomas

## C[C@]12C=CC(=O)C=C1CC[C@@H]1[C@@H]2[C@@H](O)C[C@@]2(C)[C@H]1CC[C@]2(O)C(=O)CO [prednisolone]
[1]; Example 1, one-month treatment at 3 mg/kg/day
  effect on hemangioma: stabilized, but nasal necrosis progressed
[1]; Example 2, 3 mg/kg/day 2 weeks then 5 mg/kg/day 2 weeks
  effect on IH: continued to enlarge
Subglottic hemangioma; Case 1, before beta-blocker treatment, (2 mg/kg/day)
  CS efficiency: CS-persistant
Subglottic hemangioma; Case 2, before beta-blocker treatment, (1 mg/kg/day)
  CS efficiency: CS-dependent
Subglottic hemangioma; Case 3, before beta-blocker treatment, (1 mg/kg/day)
  CS efficiency: CS-dependent
Subglottic hemangioma; Case 4, before beta-blocker treatment, (1.5 mg/kg/day)
  CS efficiency: CS-dependent

## CC[C@]1(O)C[C@H]2CN(CCc3c([nH]c4ccccc34)[C@@](C(=O)OC)(c3cc4c(cc3OC)N(C=O)[C@H]3[C@@](O)(C(=O)OC)[C@H](OC(C)=O)[C@]5(CC)C=CCN6CC[C@]43[C@@H]65)C2)C1 [vincristine]
IH
  well-known downsides: peripheral neuropathy, constipation, and hematologic toxicity
